Results on one cell line are retold here after the supplement of paper PMC10307832.

What all share (experiment): relative viability (nuclei count vs DMSO), 5 days (fraction); higher = more cells survive
Compound in test [1]: CS(=O)(=O)N1CCN(Cc2cc3nc(-c4cccc5[nH]ncc45)nc(N4CCOCC4)c3s2)CC1 [Pictilisib] + CC(C)C[C@H](NC(=O)[C@H](Cc1ccccc1)NC(=O)c1cnccn1)B(O)O [Bortezomib] (partner 0.002 µM)
In outline:
(§1)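 Lung cancer cell lines in 1536-well plates got either a single drug or a fixed anchor-drug dose together with five library-drug doses (not always all listed) in √10 steps, by pin tool, on the day after seeding. Nuclei were counted after 5 days, and relative viability is the treated-to-vehicle ratio of nuclei counts. Values are medians of duplicate plates.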

Compound in test [2]: CS(=O)(=O)N1CCN(Cc2cc3nc(-c4cccc5[nH]ncc45)nc(N4CCOCC4)c3s2)CC1 [Pictilisib] + COc1cc2c(Oc3ccc(NC(=O)C4(C(=O)Nc5ccc(F)cc5)CC4)cc3F)ccnc2cc1OCCCN1CCOCC1 [Foretinib] (partner 0.25 µM)
In outline:
as §1

Compound in test [3]: CS(=O)(=O)N1CCN(Cc2cc3nc(-c4cccc5[nH]ncc45)nc(N4CCOCC4)c3s2)CC1 [Pictilisib] + CS(=O)(=O)CCNCc1ccc(-c2ccc3ncnc(Nc4ccc(OCc5cccc(F)c5)c(Cl)c4)c3c2)o1 [Lapatinib] (partner 2 µM)
In outline: as §1

Compound in test [4]: NC1(c2ccc(-c3nc4ccn5c(=O)[nH]nc5c4cc3-c3ccccc3)cc2)CCC1 [MK-2206] + CC(C)C[C@H](NC(=O)[C@H](Cc1ccccc1)NC(=O)c1cnccn1)B(O)O [Bortezomib] (partner 0.002 µM)
In outline:
as §1

Compound in test [5]: NC1(c2ccc(-c3nc4ccn5c(=O)[nH]nc5c4cc3-c3ccccc3)cc2)CCC1 [MK-2206] + Cc1nc(NC(=O)N2CCC[C@H]2C(N)=O)sc1-c1ccnc(C(C)(C)C(F)(F)F)c1 [Alpelisib] (partner 2 µM)
In outline: as §1

With UMC-11, the relative viability in test [1] (first compound 0.02 µM) was 0.828; in test [1] (first compound 0.06325 µM) it was 0.902; in test [1] (first compound 0.6325 µM) it was 0.78; in test [1] (first compound 2 µM) it was 0.768; in test [2] (first compound 0.02 µM), 0.983; in test [2] (first compound 0.06325 µM) it was 1.25. The relative viability worked out at 1.13 in test [2] (first compound 0.6325 µM); 0.979 in test [2] (first compound 2 µM); 1.09 in test [3] (first compound 0.02 µM); 1.21 in test [3] (first compound 0.06325 µM); 1.03 in test [3] (first compound 0.6325 µM); 0.887 in test [3] (first compound 2 µM). Besides, the relative viability in test [4] (first compound 0.01 µM) amounted to 0.668; in test [4] (first compound 0.03162 µM), 0.793; in test [4] (first compound 0.3162 µM) it was 0.852; in test [4] (first compound 1 µM), 0.389; in test [5] (first compound 0.01 µM), 1.03; in test [5] (first compound 0.03162 µM), 0.908. Besides, the relative viability in test [5] (first compound 0.3162 µM) worked out at 1.1; in test [5] (first compound 1 µM) it was 0.994.
